Source: patent US9434725B2, “5-azaindazole compounds and methods of use” (priority 2012, dated 2016)
Read-outs that look alike come from different tables or passages of the source.

Legend:
Type in all cases: biochemical
[1] = molecular target: PIM1 (Homo sapiens (Human), UniProt P11309); assay: biochemical
Description: (§1) A fluorescent-labeled Pim-specific peptide substrate, was custom synthesized by American Peptide Company (Sunnyvale, Calif.). Reaction Buffer contained 10 mM HEPES, pH 7.2, 10 mM MgCl2, 0.01% Tween 20, 2 mM DTT. Termination Buffer contained 190 mM HEPES, pH 7.2, 0.015% Brij-35, 0.2% Coating Reagent 3 (Caliper Life Sciences, Hopkinton, Mass.), 20 mM EDTA. Separation Buffer contained 100 mM HEPES, pH 7.2, 0.015% Brij-35, 0.1% Coating Reagent 3, 1:200 Coating Reagent 8 (Caliper Life Sciences, Hopkinton, Mass.), 10 mM EDTA and 5% DMSO.
(§2) PIM reactions were carried out in a final volume of 10 μL per well in a 384-well plate. […] After 90 minutes of incubation at room temperature, the phosphorylation reaction was stopped by the addition of 10 μL Termination Buffer. The product and substrate in each independent reaction were separated on a 12-sipper microfluidic chip (Caliper Life Sciences, Hopkinton, Mass.) run on a Caliper LC3000® (Caliper Life Sciences, Hopkinton, Mass.). The separation of product and substrate was optimized by choosing voltages and pressure using Caliper's Optimizer software (Hopkinton, Mass.). […] Substrate conversion was calculated from the electropherogram using HTS Well Analyzer software (Caliper Life Sciences, Hopkinton, Mass.). Ki values for the test compound were calculated.

[2] = molecular target: PIM2 (Homo sapiens (Human), UniProt Q9P1W9); assay: Pim kinase binding activity, Caliper LC3000 microfluidic peptide phosphorylation assay, PIM2; details: 10 μM ATP, 90 min, room temperature; read-out: PIM2 LC3K (KI)
Sequence of PIM2 (Q9P1W9 whole entry): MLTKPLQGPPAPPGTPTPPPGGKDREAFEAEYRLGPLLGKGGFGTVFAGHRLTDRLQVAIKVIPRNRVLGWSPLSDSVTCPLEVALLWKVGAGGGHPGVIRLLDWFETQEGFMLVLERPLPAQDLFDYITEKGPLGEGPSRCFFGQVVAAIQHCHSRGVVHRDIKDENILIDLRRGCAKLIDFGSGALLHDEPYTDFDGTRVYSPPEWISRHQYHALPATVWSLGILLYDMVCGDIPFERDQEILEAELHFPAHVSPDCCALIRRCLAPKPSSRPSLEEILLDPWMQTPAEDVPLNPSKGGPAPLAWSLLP
Description: as §1, §2

[3] = molecular target: PIM3 (Homo sapiens (Human), UniProt Q86V86); assay: Pim kinase binding activity, Caliper LC3000 microfluidic peptide phosphorylation assay, PIM3; details: 10 μM ATP, 90 min, room temperature; read-out: PIM3 LC3K (KI)
Description: as §1, §2

[4] = 10 μM ATP, 90 min, room temperature, read-out: PIM1 LC3K (KI)

Sequence of PIM1 (P11309 whole entry): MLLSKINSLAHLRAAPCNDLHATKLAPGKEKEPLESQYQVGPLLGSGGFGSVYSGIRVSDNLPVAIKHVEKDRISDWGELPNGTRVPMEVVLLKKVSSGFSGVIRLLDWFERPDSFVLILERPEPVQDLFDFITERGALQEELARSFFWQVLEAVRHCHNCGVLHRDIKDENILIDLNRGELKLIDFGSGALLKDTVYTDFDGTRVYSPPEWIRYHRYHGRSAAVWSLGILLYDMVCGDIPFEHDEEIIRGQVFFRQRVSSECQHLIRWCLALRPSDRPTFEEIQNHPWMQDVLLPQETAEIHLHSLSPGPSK

SMILES	Ki [1, 4] [nM]	Ki [2] [nM]	Ki [3] [nM]	Ki [1] [nM]
Cc1cncc(-c2cc3c(cn2)cnn3-c2cccc(N3CC4(CCNC4)C3)n2)n1 [Compound 217, 1-[6-(2 7-diazaspiro[3.4]octan-2-yl)-2-pyridyl]-6-(6-methylpyrazin-2-yl)pyrazolo[4,3-c]pyridine]	1.17	15.1	0.258	–
CCn1cc(-c2cc3c(cn2)cnn3-c2cccc(N3CC[C@@H](O)C3)n2)cn1 [Compound 128, (R)-1-(6-(6-(1-ethyl-1H-pyrazol-4-yl)-1H-pyrazolo[4,3-c]pyridin-1-yl)pyridin-2-yl)pyrrolidin-3-ol]	7.22	–	4.39	–
Cc1cncc(-c2cc3c(cn2)cnn3-c2cccc(N3CCC4(CCNC4)CC3)n2)n1 [Compound 200, 8-[6-[6-(6-methylpyrazin-2-yl)pyrazolo[4,3-c]pyridin-1-yl]-2-pyridyl]-2 8-diazaspiro[4.5]decane]	1.21	17	0.451	–
c1cc(N2CCNCC2)nc(-n2ncc3cnc(-c4cncc(C5COC5)c4)cc32)c1 [Compound 114, 6-(5-(oxetan-3-yl)pyridin-3-yl)-1-(6-(piperazin-1-yl)pyridin-2-yl)-1H-pyrazolo[4,3-c]pyridine]	0.479	16.9	0.652	–
Cc1cnc(O)c(-c2cc3c(cn2)cnn3-c2cncc(N3CCCNCC3)n2)c1 [Compound 164, 3-(1-(6-(1,4-diazepan-1-yl)pyrazin-2-yl)-1H-pyrazolo[4,3-c]pyridin-6-yl)-5-methylpyridin-2-ol]	50.2	527	14.8	–
Cc1cncc(-c2cc3c(cn2)cnn3-c2cccc(N3CCNCCC3=O)n2)n1 [Compound 206, 4-[6-[6-(6-methylpyrazin-2-yl)pyrazolo[4,3-c]pyridin-1-yl]-2-pyridyl]-1 4-diazepan-5-one]	3.74	40.4	2.3	–
CC[C@@H]1CN(c2cccc(-n3ncc4cnc(-c5cnn(CC)c5)cc43)n2)CCN1 [Compound 142, (R)-6-(1-ethyl-1H-pyrazol-4-yl)-1-(6-(3-ethylpiperazin-1-yl)pyridin-2-yl)-1H-pyrazolo[4,3-c]pyridine]	0.802	15	0.458	–
CCn1cc(-c2cc3c(cn2)cnn3-c2cccc(N3CC[C@@H](N)C3)n2)cn1 [Compound 136, (R)-1-(6-(6-(1-ethyl-1H-pyrazol-4-yl)-1H-pyrazolo[4,3-c]pyridin-1-yl)pyridin-2-yl)pyrrolidin-3-amine]	2.05	17.3	0.615	–
Cn1ncc(-c2cc3c(cn2)cnn3-c2ccccc2F)c1C1=CCNCC1 [Compound 314, 1-(2-fluorophenyl)-6-(1-methyl-5-(1,2,3,6-tetrahydropyridin-4-yl)-1H-pyrazol-4-yl)-1H-pyrazolo[4,3-c]pyridine]	130	1100	166	–
c1ccc(COc2cncc(-c3cc4c(cn3)cnn4-c3cccc(N4CCNCC4)n3)n2)cc1 [Compound 276, 6-(6-(benzyloxy)pyrazin-2-yl)-1-(6-(piperazin-1-yl)pyridin-2-yl)-1H-pyrazolo[4,3-c]pyridine]	0.494	34.8	0.337	–
CO[C@@]1(C)CNCCN(c2cccc(-n3ncc4cnc(-c5cnn(CC(F)(F)F)c5)cc43)n2)C1 [Compound 261, (S)-1-(6-(6-Methoxy-6-methyl-1,4-diazepan-1-yl)pyridin-2-yl)-6-(1-(2,2,2-trifluoroethyl)-1H-pyrazol-4-yl)-1H-pyrazolo[4,3-c]pyridine]	0.763	16.5	2.74	–
Cn1cc(-c2cc3c(cn2)cnn3-c2cn(C)c(=O)c(N3CCC[C@H](N)C3)n2)cn1 [Compound 242, (S)-3-(3-Aminopiperidin-1-yl)-1-methyl-5-(6-(1-methyl-1H-pyrazol-4-yl)-1H-pyrazolo[4,3-c]pyridin-1-yl)pyrazin-2(1H)-one]	128	1600	42.2	–
Cc1cncc(-c2cc3c(cn2)cnn3-c2ccc(C)c(N3CCC[C@H](N)C3=O)n2)n1 [Compound 245, (3S)-3-amino-1-[3-methyl-6-[6-(6-methylpyrazin-2-yl)pyrazolo[4,3-c]pyridin-1-yl]-2-pyridyl]piperidin-2-one]	5.61	52.5	2.13	–
Cc1cncc(-c2cc3c(cn2)cnn3-c2ccc(=O)n([C@@H]3CCCNC3)n2)n1 [Compound 290, (R)-6-(6-(6-methylpyrazin-2-yl)-1H-pyrazolo[4,3-c]pyridin-1-yl)-2-(piperidin-3-yl)pyridazin-3(2H)-one]	–	43.2	–	16.3
NCC1CN(c2cccc(-n3ncc4cnc(-c5cnn(CC(F)(F)F)c5)cc43)n2)C1 [Compound 262, (1-(6-(6-(1-(2,2,2-Trifluoroethyl)-1H-pyrazol-4-yl)-1H-pyrazolo[4,3-c]pyridin-1-yl)pyridin-2-yl)azetidin-3-yl)methanamine]	1.23	12.5	1.84	–
CCn1cc(-c2cc3c(cn2)cnn3-c2cccc(N3CC[C@H](O)C3)n2)cn1 [Compound 127, (S)-1-(6-(6-(1-ethyl-1H-pyrazol-4-yl)-1H-pyrazolo[4,3-c]pyridin-1-yl)pyridin-2-yl)pyrrolidin-3-ol]	3.04	–	1.31	–
Cc1cncc(-c2cc3c(cn2)cnn3-c2cccc(OC3CCCC(N)C3)n2)n1 (stereo not drawn) [Compound 310, 3-(6-(6-(6-methylpyrazin-2-yl)-1H-pyrazolo[4,3-c]pyridin-1-yl)pyridin-2-yloxy)cyclohexanamine]	1.64	–	1.63	–
Cn1cc(-c2cc3c(cn2)cnn3-c2cccc(N3CC4(CNC4)C3)n2)cn1 [Compound 268, 1-(6-(2,6-Diazaspiro[3.3]heptan-2-yl)pyridin-2-yl)-6-(1-methyl-1H-pyrazol-4-yl)-1H-pyrazolo[4,3-c]pyridine]	11.5	149	–	–

More lines, in order of falling Ki [2], values ahead:

Ki [1, 4] [nM]	Ki [2] [nM]	Ki [3] [nM]	Ki [1] [nM]	SMILES
0.623	12.1	–	–	Cn1cc(-c2cc3c(cn2)cnn3-c2cccc(N3CCNCC3)n2)cn1 [Compound 102, 6-(1-methyl-1H-pyrazol-4-yl)-1-(6-(piperazin-1-yl)pyridin-2-yl)-1H-pyrazolo[4,3-c]pyridine]
–	9.58	0.203	–	CC(C)c1cncc(-c2cc3c(cn2)cnn3-c2cccc(N3CCC[C@@H](N)C3)n2)c1 [Compound 107, (R)-1-(6-(6-(5-isopropylpyridin-3-yl)-1H-pyrazolo[4,3-c]pyridin-1-yl)pyridin-2-yl)piperidin-3-amine]
2.37	7.11	1.84	–	Cc1cncc(-c2cc3c(cn2)cnn3-c2cnc(O)c(N3CCC[C@H](N)C3)n2)n1 [Compound 223, 3-[(3S)-3-amino-1-piperidyl]-5-[6-(6-methylpyrazin-2-yl)pyrazolo[4 3-c]pyridin-1-yl]pyrazin-2-ol]
–	4.83	0.331	–	Cc1cncc(-c2cc3c(cn2)cnn3-c2cccc(N3CCCC(N)C3C)n2)n1 (single isomer, unassigned) [Compound 203, 2-methyl-1-[6-[6-(6-methylpyrazin-2-yl)pyrazolo[4,3-c]pyridin-1-yl]-2-pyridyl]piperidin-3-amine]
–	4.31	0.4	–	c1ccc(-n2ncc3cnc(-c4cncc(NC5CNC5)n4)cc32)nc1 [Compound 308, N-(azetidin-3-yl)-6-(1-(pyridin-2-yl)-1H-pyrazolo[4,3-c]pyridin-6-yl)pyrazin-2-amine]
0.107	2.25	0.236	–	COc1ccc(-n2ncc3cnc(-c4cnn(CC(F)(F)F)c4)cc32)nc1N1CCNC[C@@H](O)C1 [Compound 234, (R)-1-(3-Methoxy-6-(6-(1-(2,2,2-trifluoroethyl)-1H-pyrazol-4-yl)-1H-pyrazolo-[4,3-c]pyridin-1-yl)pyridin-2-yl)-1,4-diazepan-6-ol]
0.125	0.979	0.073	–	COc1ncc(-n2ncc3cnc(-c4cncc(C)n4)cc32)nc1N1CCC[C@H](N)C1 [Compound 222, (3S)-1-[3-methoxy-6-[6-(6-methylpyrazin-2-yl)pyrazolo[4,3-c]pyridin-1-yl]pyrazin-2-yl]piperidin-3-amine]
–	0.748	0.014	–	Cc1nc(-c2cc3c(cn2)cnn3-c2cccc(N3CCCNCC3)n2)cnc1N [Compound 208, 5-(1-(6-(1,4-diazepan-1-yl)pyridin-2-yl)-1H-pyrazolo[4,3-c]pyridin-6-yl)-3-methylpyrazin-2-amine]
–	0.314	0.011	–	Cc1cncc(-c2cc3c(cn2)cnn3-c2ccc(F)c(N3CCC[C@H](N)C3)n2)n1 [Compound 215, (S)-1-(3-fluoro-6-(6-(6-methylpyrazin-2-yl)-1H-pyrazolo[4,3-c]pyridin-1-yl)pyridin-2-yl)piperidin-3-amine]
0.053	0.242	–	–	Cc1cncc(-c2cc3c(cn2)cnn3-c2cccc(C3CNCCC3(F)F)n2)n1 (stereo not drawn) [Compound 259, 1-[6-(4,4-difluoro-3-piperidyl)-2-pyridyl]-6-(6-methylpyrazin-2-yl)pyrazolo[4,3-c]pyridine]
